According to US9695155B2, “Herbicidal substituted pyrimidinyloxy benzene compounds” (E. I. DU PONT DE NEMOURS AND COMPANY, priority 2013, dated 2017):

Tests used:
blackgrass = assay: Test A postemergence; type: in vivo, Alopecurus myosuroides; conditions: 0 to 100 scale where 0 is no effect and 100 is complete control
Method in brief: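 Compounds in non-phytotoxic solvent with surfactant applied as soil spray preemergence, or postemergence to plants 2-10 cm at one- to two-leaf stage, in loam/sand. After approximately 10 days in greenhouse, injury rated visually versus untreated controls, 0 (no effect) to 100 (complete control).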

rice = assay: Test C flooded paddy test; type: in vivo, Oryza sativa; conditions: Flood, scale 0 to 100 (0 no effect, 100 complete control), 13 to 15 days
Method in brief: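 Compound was added to standing water 3 cm above soil, flood maintained, and plants held in a greenhouse before visual scoring against controls at 13 to 15 days.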

soybean = assay: Test E preemergence; type: in vivo, Glycine max; conditions: for Soybean plant response rating: scale 0 to 100 (0 no effect, 100 complete control)
Method in brief: (§1)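 Response was scored visually on a 0-100 scale (100 = complete control) versus controls after 14 to 21 days in the greenhouse. Test chemicals, formulated with surfactant in a non-phytotoxic solvent mixture, had been applied preemergence to seeds in silt loam soil or postemergence to 1- to 4-leaf plants in potting medium.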

palmer pigweed = assay: Test E preemergence; type: in vivo, Amaranthus palmeri; conditions: for Pigweed, Palmer plant response rating: scale 0 to 100 (0 no effect, 100 complete control)
Method in brief: as §1

surinam grass = assay: Test E preemergence; type: in vivo, Brachiaria decumbens; conditions: for Surinam Grass plant response rating: scale 0 to 100 (0 no effect, 100 complete control)
Method in brief: as §1

giant foxtail = assay: Test E preemergence; type: in vivo, Setaria faberii; conditions: for Foxtail, Giant plant response rating: scale 0 to 100 (0 no effect, 100 complete control)
Method in brief: as §1

sandbur = assay: Test E preemergence; type: in vivo, Cenchrus echinatus; conditions: for Sandbur plant response rating: scale 0 to 100 (0 no effect, 100 complete control)
Method in brief: as §1

Italian ryegrass = assay: Test E preemergence; type: in vivo, Lolium multiflorum; conditions: for Ryegrass, Italian plant response rating: scale 0 to 100 (0 no effect, 100 complete control)
Method in brief: as §1

kochia = assay: Test E preemergence; type: in vivo, Kochia scoparia; conditions: for Kochia plant response rating: scale 0 to 100 (0 no effect, 100 complete control)
Method in brief: as §1

yellow nutsedge = assay: Test E preemergence; type: in vivo, Cyperus esculentus; conditions: for Nutsedge, Yellow plant response rating: scale 0 to 100 (0 no effect, 100 complete control)
Method in brief: as §1

[1] = 125 g ai/ha, scale 0 to 100, 0 no effect, 100 complete control
[2] = 250 g ai/ha, scale 0 to 100, 0 no effect, 100 complete control
[3] = 8 g ai/ha, scale 0 to 100, 0 is no effect, 100 is complete control

Structure (SMILES)	Plant response rating, Rice (rice; 62 g ai/ha)	Plant response rating, Rice (rice; 125 g ai/ha)	Plant response rating, Rice (rice; 250 g ai/ha)	Soybean plant response rating (soybean; 62 g ai/ha)	Plant response rating, Soybean (soybean; [1])	Pigweed, Palmer plant response rating (palmer pigweed; 31 g ai/ha)	Pigweed, Palmer plant response rating (palmer pigweed; 62 g ai/ha)	Plant response rating, Pigweed, Palmer (palmer pigweed; [1])	Surinam Grass plant response rating (surinam grass; 31 g ai/ha)	Surinam Grass plant response rating (surinam grass; 62 g ai/ha)	Plant response rating, Surinam Grass (surinam grass; [1])	Foxtail, Giant plant response rating (giant foxtail; 31 g ai/ha)	Foxtail, Giant plant response rating (giant foxtail; 62 g ai/ha)	Plant response rating, Foxtail, Giant (giant foxtail; [1])	Sandbur plant response rating (sandbur; 31 g ai/ha)	Sandbur plant response rating (sandbur; 62 g ai/ha)	Plant response rating, Sandbur (sandbur; [1])	Ryegrass, Italian plant response rating (Italian ryegrass; 62 g ai/ha)	Kochia plant response rating (kochia; 62 g ai/ha)	Nutsedge, Yellow plant response rating (yellow nutsedge; 62 g ai/ha)	also measured
CCOc1cnn(-c2c(C#N)cccc2Oc2ncc(F)cn2)c1 [Compound 89]	0	0	0	30	60	0	0	40	0	0	10	0	20	65	0	10	10	0	75	0	Plant response rating, Blackgrass (blackgrass; 125 g ai/ha): 40; Plant response rating, Blackgrass (blackgrass; 500 g ai/ha): 90; Plant response rating, Soybean (soybean; [2]): 80; Plant response rating, Pigweed, Palmer (palmer pigweed; [2]): 100; Plant response rating, Surinam Grass (surinam grass; [2]): 75; Plant response rating, Foxtail, Giant (giant foxtail; [2]): 100; Plant response rating, Sandbur (sandbur; [2]): 20; Ryegrass, Italian plant response rating (Italian ryegrass; 31 g ai/ha): 0; Plant response rating, Ryegrass, Italian (Italian ryegrass; [1]): 0; Plant response rating, Ryegrass, Italian (Italian ryegrass; [2]): 0; Kochia plant response rating (kochia; 31 g ai/ha): 60; Plant response rating, Kochia (kochia; [1]): 100; Plant response rating, Kochia (kochia; [2]): 100; Nutsedge, Yellow plant response rating (yellow nutsedge; 31 g ai/ha): 0; Plant response rating, Nutsedge, Yellow (yellow nutsedge; [1]): 20; Plant response rating, Nutsedge, Yellow (yellow nutsedge; [2]): 35
FC(F)(F)c1cnn(-c2c(Cl)cccc2Oc2ncc(Cl)cn2)c1 [Compound 167]	0	0	0	20	50	0	98	100	0	0	0	0	100	100	0	20	65	10	65	0	Plant response rating, Rice (rice; 31 g ai/ha): 0; Soybean plant response rating (soybean; 31 g ai/ha): 0; Foxtail, Giant plant response rating (giant foxtail; 16 g ai/ha): 0; Ryegrass, Italian plant response rating (Italian ryegrass; 31 g ai/ha): 0; Plant response rating, Ryegrass, Italian (Italian ryegrass; [1]): 40; Kochia plant response rating (kochia; 31 g ai/ha): 40; Plant response rating, Kochia (kochia; [1]): 90; Nutsedge, Yellow plant response rating (yellow nutsedge; 31 g ai/ha): 0; Plant response rating, Nutsedge, Yellow (yellow nutsedge; [1]): 0
Fc1cccc(Oc2ncc(Cl)cn2)c1-n1cc(I)cn1 [Compound 179]	0	10	10	25	40		100	100		0	0		65	100		15	15	15	25	30	Plant response rating, Rice (rice; 31 g ai/ha): 0; Plant response rating, Soybean (soybean; [3]): 0; Plant response rating, Pigweed, Palmer (palmer pigweed; [3]): 0; Plant response rating, Surinam Grass (surinam grass; [3]): 0; Plant response rating, Foxtail, Giant (giant foxtail; [3]): 0; Foxtail, Giant plant response rating (giant foxtail; 16 g ai/ha): 0; Plant response rating, Sandbur (sandbur; [3]): 0; Plant response rating, Ryegrass, Italian (Italian ryegrass; [3]): 0; Plant response rating, Ryegrass, Italian (Italian ryegrass; [1]): 15; Plant response rating, Kochia (kochia; [3]): 0; Plant response rating, Kochia (kochia; [1]): 75; Plant response rating, Nutsedge, Yellow (yellow nutsedge; [3]): 0; Plant response rating, Nutsedge, Yellow (yellow nutsedge; [1]): 30
FC(F)c1cccc(Oc2ncc(Cl)cn2)c1-n1cc(Br)cn1 [Compound 194, 2-[2-(4-bromo-1H-pyrazol-1-yl)-3-(difluoromethyl)phenoxy]-5-chloropyrimidine]	10	10	10	20		98	100		0	0		25	75		20	20		0	35	20	Plant response rating, Rice (rice; 31 g ai/ha): 10; Soybean plant response rating (soybean; 31 g ai/ha): 0; Ryegrass, Italian plant response rating (Italian ryegrass; 31 g ai/ha): 0; Kochia plant response rating (kochia; 31 g ai/ha): 5; Nutsedge, Yellow plant response rating (yellow nutsedge; 31 g ai/ha): 0
